Laboratory results reported in ChEMBL document CHEMBL3885861, “Open TG-GATES”.

Species: Rattus norvegicus
Assay: Open TG-GATES - Regimen: Daily Repeat
Type: toxicity, organism-based, Sprague-Dawley
Set-up: regimen Daily Repeat, gender Male, age 6 weeks
Settings: in vivo, po, 300 mg/kg, route gavage, dose level Middle; for APTT / Bas / Eos / Fbg / Hb / Ht / Lym / MCH / MCHC / MCV / Mono / Neu / PT / Plat / RBC / Ret / WBC: tissue Blood; for KIDNEY_L / KIDNEY_R / KIDNEY_TOTAL: tissue Kidney; for LIVER: tissue Liver; for A/G / ALP / ALT / AST / BUN / CRE / Ca / Cl / DBIL / GLC / IP / LDH / Na / PL / RALB / TBIL / TC / TG / TP / gamma-GTP: tissue Plasma

With NC(N)=Nc1nc(CSCCC(N)=NS(N)(=O)=O)cs1 [FAMOTIDINE] the TERMINAL_BW (72 h, time 3 day) was 225.8 g, the APTT (72 h, time 3 day) was 21.2 s and the Bas (72 h, time 3 day) was 0%. It also gave an Eos (72 h, time 3 day) of 1%, a Fbg (72 h, time 3 day) of 222 mg/dL and a Hb (72 h, time 3 day) of 13.6 g/dL. It also gave a Ht (72 h, time 3 day) of 37.4%, a Lym (72 h, time 3 day) of 82% and an MCH (72 h, time 3 day) of 23 pg. It also gave an MCHC (72 h, time 3 day) of 36.3%, an MCV (72 h, time 3 day) of 63.4 fL and a Mono (72 h, time 3 day) of 2.6%. For the same compound, the Neu (72 h, time 3 day) was 13.2%, the PT (72 h, time 3 day) was 12 s and the Plat (72 h, time 3 day) was 127.7 x10_4/uL. It also gave an RBC (72 h, time 3 day) of 589.8 x10_4/ul, a Ret (72 h, time 3 day) of 5.1% and a WBC (72 h, time 3 day) of 106.3 x10_2/uL. It also gave a KIDNEY_L (72 h, time 3 day) of 1 g, a KIDNEY_R (72 h, time 3 day) of 1 g and a KIDNEY_TOTAL (72 h, time 3 day) of 2 g. It also gave an LIVER (72 h, time 3 day) of 10.4 g, an A/G (72 h, time 3 day) of 1.7 and an ALP (72 h, time 3 day) of 998.8 IU/L. The ALT (72 h, time 3 day) was 33.6 IU/L, the AST (72 h, time 3 day) was 65 IU/L and the BUN (72 h, time 3 day) was 14.4 mg/dL. For the same compound, the CRE (72 h, time 3 day) was 0.4 mg/dL, the Ca (72 h, time 3 day) was 10.9 mg/dL and the Cl (72 h, time 3 day) was 102.6 meq/L. For the same compound, the DBIL (72 h, time 3 day) was 0.082 mg/dL, the GLC (72 h, time 3 day) was 186.2 mg/dL and the IP (72 h, time 3 day) was 7.8 mg/dL. It also gave an LDH (72 h, time 3 day) of 194.2 IU/L, a Na (72 h, time 3 day) of 139.2 meq/L and a PL (72 h, time 3 day) of 141.4 mg/dL. It also gave an RALB (72 h, time 3 day) of 3.5 g/dL, a TBIL (72 h, time 3 day) of 0.1 mg/dL and a TC (72 h, time 3 day) of 76.2 mg/dL. It also gave a TG (72 h, time 3 day) of 77.6 mg/dL, a TP (72 h, time 3 day) of 5.6 g/dL and a gamma-GTP (72 h, time 3 day) of 1.2 IU/L. For the same compound, the TERMINAL_BW ([…], time 7 day) was 261.1 g, the TERMINAL_BW ([…], time 14 day) was 316.2 g and the TERMINAL_BW ([…], time 28 day) was 394.2 g. For the same compound, the APTT ([…], time 7 day) was 20.3 s, the Bas ([…], time 7 day) was 0% and the Eos ([…], time 7 day) was 1%. For the same compound, the Fbg ([…], time 7 day) was 225 mg/dL, the Hb ([…], time 7 day) was 13.9 g/dL and the Ht ([…], time 7 day) was 38.8%. For the same compound, the Lym ([…], time 7 day) was 79.2%, the MCH ([…], time 7 day) was 22.1 pg and the MCHC ([…], time 7 day) was 35.8%. It also gave an MCV ([…], time 7 day) of 61.7 fL, a Mono ([…], time 7 day) of 2.2% and a Neu ([…], time 7 day) of 16%. It also gave a PT ([…], time 7 day) of 12 s, a Plat ([…], time 7 day) of 114.6 x10_4/uL and an RBC ([…], time 7 day) of 629.6 x10_4/ul. It also gave a Ret ([…], time 7 day) of 5.2%, a WBC ([…], time 7 day) of 85.9 x10_2/uL and an APTT ([…], time 14 day) of 19.7 s. It also gave a Bas ([…], time 14 day) of 0%, an Eos ([…], time 14 day) of 0.8% and a Fbg ([…], time 14 day) of 224 mg/dL. It also gave a Hb ([…], time 14 day) of 14.4 g/dL, a Ht ([…], time 14 day) of 42% and a Lym ([…], time 14 day) of 79%. It also gave an MCH ([…], time 14 day) of 20.9 pg, an MCHC ([…], time 14 day) of 34.3% and an MCV ([…], time 14 day) of 60.9 fL. The Mono ([…], time 14 day) was 2.8%, the Neu ([…], time 14 day) was 16% and the PT ([…], time 14 day) was 12.4 s. It also gave a Plat ([…], time 14 day) of 120.5 x10_4/uL, an RBC ([…], time 14 day) of 689.4 x10_4/ul and a Ret ([…], time 14 day) of 4.3%. It also gave a WBC ([…], time 14 day) of 117 x10_2/uL, an APTT ([…], time 28 day) of 20.2 s and a Bas ([…], time 28 day) of 0%. For the same compound, the Eos ([…], time 28 day) was 1.4%, the Fbg ([…], time 28 day) was 220.6 mg/dL and the Hb ([…], time 28 day) was 15.4 g/dL. For the same compound, the Ht ([…], time 28 day) was 43.3%, the Lym ([…], time 28 day) was 82.2% and the MCH ([…], time 28 day) was 20 pg. For the same compound, the MCHC ([…], time 28 day) was 35.4%, the MCV ([…], time 28 day) was 56.4 fL and the Mono ([…], time 28 day) was 1.6%. It also gave a Neu ([…], time 28 day) of 13.4%, a PT ([…], time 28 day) of 12.5 s and a Plat ([…], time 28 day) of 100.3 x10_4/uL. It also gave an RBC ([…], time 28 day) of 768.2 x10_4/ul, a Ret ([…], time 28 day) of 2.3% and a WBC ([…], time 28 day) of 116.4 x10_2/uL. For the same compound, the KIDNEY_L ([…], time 7 day) was 1.2 g, the KIDNEY_R ([…], time 7 day) was 1.1 g and the KIDNEY_TOTAL ([…], time 7 day) was 2.3 g. For the same compound, the KIDNEY_L ([…], time 14 day) was 1.2 g, the KIDNEY_R ([…], time 14 day) was 1.2 g and the KIDNEY_TOTAL ([…], time 14 day) was 2.4 g. It also gave a KIDNEY_L ([…], time 28 day) of 1.4 g, a KIDNEY_R ([…], time 28 day) of 1.4 g and a KIDNEY_TOTAL ([…], time 28 day) of 2.8 g. For the same compound, the LIVER ([…], time 7 day) was 12.6 g, the LIVER ([…], time 14 day) was 13.4 g and the LIVER ([…], time 28 day) was 14.9 g. It also gave an A/G ([…], time 7 day) of 1.5, an ALP ([…], time 7 day) of 921.4 IU/L and an ALT ([…], time 7 day) of 34.2 IU/L. It also gave an AST ([…], time 7 day) of 65.2 IU/L, a BUN ([…], time 7 day) of 15.6 mg/dL and a CRE ([…], time 7 day) of 0.4 mg/dL. It also gave a Ca ([…], time 7 day) of 10.8 mg/dL, a Cl ([…], time 7 day) of 103.4 meq/L and a DBIL ([…], time 7 day) of 0.092 mg/dL. For the same compound, the GLC ([…], time 7 day) was 192.8 mg/dL, the IP ([…], time 7 day) was 7.6 mg/dL and the LDH ([…], time 7 day) was 183.4 IU/L. For the same compound, the Na ([…], time 7 day) was 141.4 meq/L, the PL ([…], time 7 day) was 161 mg/dL and the RALB ([…], time 7 day) was 3.4 g/dL. The TBIL ([…], time 7 day) was 0.1 mg/dL, the TC ([…], time 7 day) was 83.8 mg/dL and the TG ([…], time 7 day) was 111.4 mg/dL. The TP ([…], time 7 day) was 5.7 g/dL, the gamma-GTP ([…], time 7 day) was 1.4 IU/L and the A/G ([…], time 14 day) was 1.6. For the same compound, the ALP ([…], time 14 day) was 907.6 IU/L, the ALT ([…], time 14 day) was 40.2 IU/L and the AST ([…], time 14 day) was 66 IU/L. It also gave a BUN ([…], time 14 day) of 16 mg/dL, a CRE ([…], time 14 day) of 0.5 mg/dL and a Ca ([…], time 14 day) of 10.6 mg/dL. For the same compound, the Cl ([…], time 14 day) was 103.2 meq/L, the DBIL ([…], time 14 day) was 0.1 mg/dL and the GLC ([…], time 14 day) was 208.2 mg/dL. For the same compound, the IP ([…], time 14 day) was 7.3 mg/dL, the LDH ([…], time 14 day) was 151.6 IU/L and the Na ([…], time 14 day) was 140.2 meq/L. The PL ([…], time 14 day) was 146.6 mg/dL, the RALB ([…], time 14 day) was 3.5 g/dL and the TBIL ([…], time 14 day) was 0.2 mg/dL. The TC ([…], time 14 day) was 76 mg/dL, the TG ([…], time 14 day) was 97.4 mg/dL and the TP ([…], time 14 day) was 5.7 g/dL. The gamma-GTP ([…], time 14 day) was 2.2 IU/L, the A/G ([…], time 28 day) was 1.3 and the ALP ([…], time 28 day) was 609.6 IU/L. The ALT ([…], time 28 day) was 35.2 IU/L, the AST ([…], time 28 day) was 66.8 IU/L and the BUN ([…], time 28 day) was 16.6 mg/dL. It also gave a CRE ([…], time 28 day) of 0.5 mg/dL, a Ca ([…], time 28 day) of 10.4 mg/dL and a Cl ([…], time 28 day) of 103.4 meq/L. The DBIL ([…], time 28 day) was 0.072 mg/dL, the GLC ([…], time 28 day) was 217.8 mg/dL and the IP ([…], time 28 day) was 7 mg/dL. It also gave an LDH ([…], time 28 day) of 160.6 IU/L, a Na ([…], time 28 day) of 141 meq/L and a PL ([…], time 28 day) of 133 mg/dL. It also gave an RALB ([…], time 28 day) of 3.3 g/dL, a TBIL ([…], time 28 day) of 0.1 mg/dL and a TC ([…], time 28 day) of 68.6 mg/dL. The TG ([…], time 28 day) was 86.2 mg/dL, the TP ([…], time 28 day) was 5.9 g/dL and the gamma-GTP ([…], time 28 day) was 1 IU/L.
